Key:
[1] = HAP affinity: chromatographic profiling on hydroxyapatite column (FPLC); assay type: physicochemical; conditions: phosphate buffer gradient 1 mM up to 1000 mM, pH 6.8, determined in triplicate, longer retention = higher mineral affinity
[2] = molecular target: T1, human farnesyl pyrophosphate synthase (FPPS) (Homo sapiens, UniProt P14324); assay: FPPS inhibition in vitro; assay type: biochemical; conditions: recombinant human FPPS
T1 construct: made in house
T1 sequence (P14324 67-419 limits assumed): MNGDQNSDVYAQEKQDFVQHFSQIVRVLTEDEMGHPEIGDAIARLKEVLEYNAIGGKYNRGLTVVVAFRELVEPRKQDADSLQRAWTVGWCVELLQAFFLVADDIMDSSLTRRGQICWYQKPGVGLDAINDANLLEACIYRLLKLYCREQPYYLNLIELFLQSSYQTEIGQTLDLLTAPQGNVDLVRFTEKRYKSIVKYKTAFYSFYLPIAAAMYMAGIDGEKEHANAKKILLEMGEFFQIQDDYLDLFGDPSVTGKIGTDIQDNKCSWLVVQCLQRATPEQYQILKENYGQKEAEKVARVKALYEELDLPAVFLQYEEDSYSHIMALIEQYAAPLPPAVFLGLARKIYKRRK

Retention time [1] [min]	IC50 ([2]; after pre-incubation) [nM]	Ki ([2]; final inhibition constant) [nM]	SMILES
6.3	6.6	0.6	O=P(O)(O)C(Cc1c[nH]c2ccncc12)P(=O)(O)O [5-azaindol-3-yl-ethyl-bisphosphonic acid]
10.33			O=P(O)(O)C(O)(Cc1cnc2ccccn12)P(=O)(O)O [Minodronate]
9.97			O=P(O)(O)C(O)(Cc1cccnc1)P(=O)(O)O [Risedronate]
12.53			O=P(O)(O)C(O)(Cn1ccnc1)P(=O)(O)O [Zoledronate]
